Data set [1] is described as follows: Urinary recovery of thienamycin co-administered with dipeptidase inhibitor in the mouse. The data set is classed as in vivo, mouse (Charles River CD, female). The conditions noted are these: urine, iv, Table II, control, thienamycin 10 mg/kg alone. How it is done: In addition to this in vitro screen procedure, an in vivo screen was followed to measure the test compound's ability to inhibit metabolism as reflected by increase in urinary recovery of thienamycin from the mouse. The procedure involves co-administration of the test compound by the intravenous or subcutaneous route at a dose-rate of 10-100 mg/kg, with 10 mg/kg thienamycin. Thienamycin recovery in the urine over a 4 hour period is then compared with its recovery in a control group to which test compound was not co-administered.
Urinary recovery of thienamycin was measured in all cases with the use of a cylinder or disc diffusion assay, conducted in a manner described in U.S. Pat. No. 3,950,357. This bioassay, with Staphylococcus aureus ATCC 6538 as the test organism, has a useful response range from 0.04 μg/ml to 3.0 μg/ml.
An in vivo assay on the mouse was conducted as follows: 20 g Charles River CD, female mice were injected subcutaneously with the chosen dose of the chemical inhibitor. About two minutes later, the dose of thienamycin was given intravenously. A control of thienamycin above was also conducted. The level of thienamycin in the urine as a % of dose was measured using a bioassay technique. The two test compound numbers are those from Table I. Compound 7 is Z-2-isovaleramido-2-butenoicacid; compound 10 is Z-2-cyclopropylcarboxamido-2-butenoic acid. […]

For another data set, the system named is Staphalococcus aureus. Description: Systemic efficacy of thienamycin with co-administered inhibitor, Staphylococcus aureus infection in mouse. The data set is classed as in vivo.
The nature of the next data set: in vivo. Further details: species or system dog (male beagle). The conditions noted are these: dog, iv, 5 mg/kg. How it is done:
A male beagle was used for a study of the effect of dipeptidase inhibitors on the urinary recovery of N-formimidoyl thienamycin. In a control study, the dog was given 5 mg/kg IV of the N-formimidoyl thienamycin without inhibitor. A second experiment used the same amount of N-formimidoylthienamycin, but also administered Z-2-isovaleramido-2-butenoic acid in 3 doses, each providing 20 mg/kg of the compound. The first dose was administered just after injection of the N-formimidoylthienamycin, the second at 40 min. and the third at 60 min. […]

The term ED50 denotes the dose that gives a 50% effect, or the effect in half of the subjects. Consider `C[C@@H](O)[C@H]1C(=O)N2C(C(=O)O)=C(SCCN)C[C@H]12` [Thienamycin], for which the dose excreted at 4 h in data set [1] is 25 to 30%. The results for the 50% effective dose (ED50) with Staphalococcus aureus (THM +100 mg/kg inhibitor (Z-2-isovaleramido-2-butenoic acid)) and with Staphalococcus aureus (THM alone) were 0.06 mg/kg and 0.2 mg/kg, respectively.
Regarding `C[C@@H](O)[C@H]1C(=O)N2C(C(=O)O)=C(SCCN=CN)C[C@H]12` [N-formimidoyl thienamycin, N-Formimidoyl thienamycin], in the data set “in vivo”, the dose excreted at 3 h was found to be 7.8%.

For the origin of these results see patent US4539208A, “Combination of thienamycin-type antibiotics with dipeptidase inhibitors” (Merck & Co., Inc., priority 1981, dated 1985).
